The numbers were not newly measured in US12150927B2, “Use of cannabidiolic acid in the treatment of autism spectrum disorder and associated disorders” (GW Research Limited, priority 2016, dated 2024), which cites them from elsewhere.

For the data set the following is noted: background statement; cited from earlier work.

Turning to `Cc1c(C(=O)NN2CCCCC2)nn(-c2ccc(Cl)cc2Cl)c1-c1ccc(Cl)cc1` [rimonabant], the side effects result is reported as “serious side effects such as suicide ideation”.
